{"source": "patent US20030216569A1", "about": "“Method of making HIV protease inhibitors” (priority 1993, published 2003)", "key": {"[1]": {"system": "HIV-1 isolates IIIB and/or RF in CEM cells", "assay": "SRI primary anti-HIV screen, MTT assay of inhibition of HIV-induced cell killing in CEM cells", "assay_type": "cell-based", "conditions": "for IC50: Human immunodeficiency virus 1, IIIB, CCRF-CEM, read-out: SRI CEM IC50 ng/mL, CEM cells; for SRI CEM IC50: CEM cells", "procedure": "(§1) A. Principle of MTT Assay:\nThis assay involves the conversion of the tetrazolium dye MTT to a colored formazan product by mitochondrial enzymes in metabolically active cells. This assay system is used at SRI to screen over 30,000 compounds per year. Briefly, the assay involves the infection of CEM or MT2 cells in round bottom 96-well plates. The compound of interest is added just prior to infection. Following 6 days of incubation at 37° C. the plates are stained with MTT. The results of the assay are quantitated spectrophotometrically on a Molecular Devices Vmax plate reader. The data are analyzed by linear regression utilizing an in-house software program to calculate antiviral activity (IC25, IC50, IC95) and toxicity (TC25, TC50, TC95) as well as other values.\n(§2) Primary antiviral assays are routinely performed in CEM or MT-2 cells.\n(§3) B. Standard Screening Assays in CEM and MT-2 Cells\n(§4) 1. Compound dilution and delivery to the plates\n(§5) Drugs are solubilized in the appropriate vehicle such as distilled water or DMSO if necessary. Latex gloves, lab coats and masks are used during all phases of the handling process to prevent exposure to potentially harmful agents. The drug is prepared at the appropriate concentration and stored at −20° C. until used by the screening laboratory. The first dilution of each compound is made in a dilution tube with medium to yield a concentration two-fold that of the highest test concentration. Sterile titer tubes are then used to make serial one half-log dilutions of each compound. Following drug dilution, the diluted compound is added to the appropriate well of a 96-well microtiter plate. Up to 12 dilutions can be assayed conveniently in triplicate on a single plate with all appropriate controls including cell control, virus control, toxicity control, drug color control, medium control and plastic (background) control. When testing includes only six dilutions, two drugs can be assayed on a single microtiter plate. The drugs are added to the plate in a final volume of 100 microliters.\n(§6) During the time the drug dilutions are prepared, cells are washed and counted. Viability is monitored by trypan blue dye exclusion and assays are not performed if the viability falls below 90%. Cells are maintained in an exponential growth phase and are split 1:2 on the day prior to assay to assure exponential growth rate.\n(§7) For the primary screen, the cell lines utilized are CEM and MT-2. Unless otherwise indicated, the medium used is RPMI 1640 with 10% heat-inactivated fetal calf serum (FBS), glutamine and antibiotics.\n(§8) Cells are propagated at 37° C. in an atmosphere of 5% CO2 in air. The virus employed for this work is HIV-1 isolates IIIB and/or RF, which are prepared by an acute infection process.\n(§9) Briefly, virus-infected cells are pelleted on a daily basis beginning at three days post-infection until the virus has killed all of the cells in the culture. Reverse transcriptase activity and p24 ELISA are used to identify pools with the greatest amout of virus.\n(§10) These 24-hour harvests are pooled, filtered and frozen at −90° C. Prior to use in the assay, the infectious pool of virus is titered on all available cell lines in order to determine the amount of virus required in the antiviral assay.\n(§11) In general, pools produced by the acute infection method require the addition of one microliter of infectious virus per well resulting in the screening of drugs at a multiplicity of infection of 0.01. In this manner, enough virus is prepared and frozen to complete over one thousand microtiter plates, allowing the testing of up to two thousand compounds from a single stock of infectious virus.\nVirus infection of the CEM and MT-2 cells for the antiviral assay is carried out in a bulk infection process."}, "[2]": {"system": "HIV-1 isolates IIIB and/or RF in MT-2 cells", "assay": "SRI primary anti-HIV screen, MTT assay of inhibition of HIV-induced cell killing in MT2 cells", "assay_type": "cell-based", "conditions": "for IC50: Human immunodeficiency virus 1, IIIB, MT2, read-out: SRI MT2 IC50 ng/ml, MT2 cells; for SRI MT2 IC50: MT2 cells", "from_the_text": "I. Primary Drug Screening of Anti-HIV Compounds at Southern Research Institute (SRI) (Results recorded in Table 1 are designated “SRI CEM (ng/ml)” or “SRI MT2 (ng/ml)”)\nas §1\nSRI has an established program for the primary antiviral analysis of compounds in microtiter assays which measures the ability of a selected compound to inhibit HIV-induced cell killing. This assay involves the conversion of the tetrazolium dye MTT to a colored formazan product by mitochondrial enzymes in metabolically active cells. This assay system is used at SRI to screen over 30,000 compounds per year. Briefly, the assay involves the infection of CEM or MT2 cells in round bottom 96-well plates. The compound of interest is added just prior to infection. Following 6 days of incubation at 37° C. the plates are stained with MTT. The results of the assay are quantitated spectrophotometrically on a Molecular Devices Vmax plate reader. The data are analyzed by linear regression utilizing an in-house software program to calculate antiviral activity (IC25, IC50, IC95) and toxicity (TC25, TC50, TC95) as well as other values.\nas §2, §3, §4\nas §5, with “Up to 12 dilutions can be assayed conveniently in triplicate on a single plate with all appropriate controls including cell control, virus control, toxicity control, drug color control, medium control and plastic (background) control.” left out\nas §6, §7, §8, §9, §10\nas §11, with “virus. The use of a single stock of virus for a long period of testing has very favorable effects on the repeatability of the assay systems. […]” for “virus.”"}, "[3]": {"system": "Viral SN123 infected CEM cells"}, "[4]": {"conditions": "Human immunodeficiency virus 1, CCRF-CEM, read-out: Whole cell IC50 nM, CEM cells, values in parentheses are 35B in same assay"}, "[5]": {"conditions": "Human immunodeficiency virus 1, CCRF-CEM, read-out: Whole cell IC90 nM, CEM cells, values in parentheses are 35B in same assay"}}, "note": "Read-outs that look alike come from different tables or passages of the source."}
{"molecule": "Cc1c(O)cccc1C(=O)N[C@@H](Cc1ccccc1)[C@H](O)CN1CCN(Cc2cccnc2)C[C@H]1C(=O)NC(C)(C)C", "note": "[Example 26, [2S-(2R*,2′S*,3′R*)]-1-[2′-Hydroxy-3′-phenylmethyl-4′-aza-5′-oxo-5′-(2″-methyl-3″-hydroxyphenyl)pentyl]-4-(pyrid-3′″-ylmethyl) piperazine-2-N-t-butylcarboxamide]", "values": [{"measurement": "IC50", "setting": "[1]", "result": 49.7, "unit": "ng/mL"}, {"measurement": "IC50", "setting": "[2]", "result": 49, "unit": "ng/mL"}, {"measurement": "IC50", "setting": "[3]; [4]", "result": 56, "unit": "nM"}, {"measurement": "IC90", "setting": "[3]; [5]", "result": 166, "unit": "nM"}]}
{"molecule": "Cc1c(O)cccc1C(=O)NC(CSc1ccc2ccccc2c1)C(O)CN1CC2CCCCC2CC1C(=O)NC(C)(C)C", "note": "(stereo not drawn) [Example 24, [3S-(3R*,4aR*,8aR*,2′S*,3′R*)]-2-[2′-Hydroxy-3′-(naphth-2-ylthiomethyl)-4′-aza-5′-oxo-5′-(2″-methyl-3″-hydroxyphenyl)pentyl] decahydroisoquinoline-3-N-t-butylcarboxamide]", "values": [{"measurement": "IC50", "setting": "[1]", "result": 67, "unit": "ng/mL"}, {"measurement": "IC50", "setting": "[2]", "result": 41.4, "unit": "ng/mL"}, {"measurement": "SRI MT2 IC50", "setting": "[2]", "result": 0.0464, "unit": "µg/mL"}, {"measurement": "IC50", "setting": "[3]; [4]", "result": 25, "unit": "nM"}]}
{"molecule": "Cc1c(N)cccc1C(=O)NC(Cc1ccccc1)C(O)CN1CC2CCCCC2CC1C(=O)NC(C)(C)C", "note": "(stereo not drawn) [Example 18, [3S-(3R*,4aR*,8aR*,2′S*,3′R*)]-2-[2′-Hydroxy-3′-phenylmethyl-4′-aza-5′-oxo-5′-(2″-methyl-3″-aminophenyl)pentyl] decahydroisoquinoline-3-N-t-butylcarboxamide]", "values": [{"measurement": "SRI CEM IC50", "setting": "[1]", "result": 0.231, "unit": "µg/mL"}, {"measurement": "IC50", "setting": "[1]", "result": 256, "unit": "ng/mL"}, {"measurement": "IC50", "setting": "[2]", "result": 254, "unit": "ng/mL"}, {"measurement": "SRI MT2 IC50", "setting": "[2]", "result": 0.232, "unit": "µg/mL"}, {"measurement": "IC50", "setting": "[3]; [4]", "result": 739, "unit": "nM"}]}
{"molecule": "CC(C)c1c(O)cccc1C(=O)NC(Cc1ccccc1)C(O)CN1CC2CCCCC2CC1C(=O)NC(C)(C)C", "note": "(stereo not drawn) [Example 20, [3S-(3R*,4aR*,8aR*,2′S*,3′R*)]-2-[2′-Hydroxy-3′-phenylmethyl-4′-aza-5′-oxo-5′-(2″-iospropyl-3″-hydroxyphenyl)pentyl] decahydroisoquinoline-3-N-t-butylcarboxamide]", "values": [{"measurement": "IC50", "setting": "[1]", "result": 153, "unit": "ng/mL"}, {"measurement": "IC50", "setting": "[2]", "result": 144, "unit": "ng/mL"}, {"measurement": "IC50", "setting": "[3]; [4]", "result": 186, "unit": "nM"}, {"measurement": "IC90", "setting": "[3]; [5]", "result": 671, "unit": "nM"}]}
{"molecule": "Cc1c(O)cccc1C(=O)NC(Cc1ccccc1)C(O)CN1CC2CCCCC2CC1C(=O)NC(C)(C)C", "note": "(stereo not drawn) [Example 12, [3S-(3R*,4aR*,8aR*,2′S*,3′R*)]-2-[2′-Hydroxy-3′-phenylmethyl-4′-aza-5′-oxo-5′-(2″-methyl-3″-hydroxyphenyl)pentyl] decahydroisoquinoline-3-N-t-butylcarboxamide]", "values": [{"measurement": "SRI CEM IC50", "setting": "[1]", "result": 0.0118, "unit": "µg/mL"}, {"measurement": "IC50", "setting": "[1]", "result": 16.5, "unit": "ng/mL"}, {"measurement": "SRI MT2 IC50", "setting": "[2]", "result": 0.0243, "unit": "µg/mL"}, {"measurement": "IC50", "setting": "[3]; Human immunodeficiency virus 1, CCRF-CEM, read-out: Whole cell IC50 nM, CEM cells, tested as the mesylate salt", "result": 35.7, "unit": "nM"}, {"measurement": "IC50", "setting": "[3]; [4]", "result": 15, "unit": "nM"}, {"measurement": "IC90", "setting": "[3]; Human immunodeficiency virus 1, CCRF-CEM, read-out: Whole cell IC90 nM, CEM cells, tested as the mesylate salt", "result": 91.8, "unit": "nM"}, {"measurement": "IC90", "setting": "[3]; [5]", "result": 47.8, "unit": "nM"}, {"measurement": "IC50", "setting": "[3]; read-out: Whole cell IC50 nM, CEM cells, values in parentheses are 35B in same assay", "result": 22.3, "unit": "nM"}, {"measurement": "IC90", "setting": "[3]; read-out: Whole cell IC90 nM, CEM cells, values in parentheses are 35B in same assay", "result": 73.2, "unit": "nM"}]}
